From patent publication US20090176696A1, “Methods And Compositions For Modulating An Immune Response” (priority 2006, published 2009)

Assays:
[1] = molecular target: T1, murine NOD1 (Mus musculus, UniProt Q8BHB0); settings: cited from earlier work
T1 sequence (Q8BHB0 1-953): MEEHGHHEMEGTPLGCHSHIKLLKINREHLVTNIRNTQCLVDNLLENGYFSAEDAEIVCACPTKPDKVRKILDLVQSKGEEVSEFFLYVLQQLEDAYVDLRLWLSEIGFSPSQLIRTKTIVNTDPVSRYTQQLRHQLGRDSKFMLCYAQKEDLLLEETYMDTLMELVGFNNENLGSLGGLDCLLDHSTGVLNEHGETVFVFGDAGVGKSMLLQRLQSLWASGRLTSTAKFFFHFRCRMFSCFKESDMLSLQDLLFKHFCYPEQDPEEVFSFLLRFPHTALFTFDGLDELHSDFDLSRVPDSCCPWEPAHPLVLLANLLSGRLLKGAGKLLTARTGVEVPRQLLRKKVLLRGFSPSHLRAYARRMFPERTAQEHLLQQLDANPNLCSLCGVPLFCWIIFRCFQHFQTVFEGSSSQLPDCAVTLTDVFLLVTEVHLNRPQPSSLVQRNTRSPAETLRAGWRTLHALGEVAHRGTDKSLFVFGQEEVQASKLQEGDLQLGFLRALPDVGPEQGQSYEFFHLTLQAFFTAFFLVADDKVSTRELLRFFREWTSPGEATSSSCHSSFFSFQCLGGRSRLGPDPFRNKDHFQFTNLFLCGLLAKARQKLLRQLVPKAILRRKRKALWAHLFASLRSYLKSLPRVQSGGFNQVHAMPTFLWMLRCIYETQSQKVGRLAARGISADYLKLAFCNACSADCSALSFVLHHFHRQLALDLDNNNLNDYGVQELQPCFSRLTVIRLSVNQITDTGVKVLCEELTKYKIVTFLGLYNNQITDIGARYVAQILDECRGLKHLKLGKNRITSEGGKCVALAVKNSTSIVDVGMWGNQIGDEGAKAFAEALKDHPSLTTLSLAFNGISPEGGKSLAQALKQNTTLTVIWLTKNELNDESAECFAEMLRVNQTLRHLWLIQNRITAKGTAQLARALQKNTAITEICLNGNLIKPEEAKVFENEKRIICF

[2] = test system: KLH-specific T cell responses; test: Adoptive transfer of TCT-treated DCs; ex vivo lymph node T cell responses; type: in vivo, BALB/c mice
Description: Bone marrow-derived DCs from BALB/c mice were cultured in 2% heat inactivated normal mouse sera and 40 ng/ml recombinant GM-CSF for 12 days. DCs were harvested and cultured O/N at a concentration of 1×10^6 cells/ml. DCs were then incubated with KLH (20 μg/ml) alone, KLH (20 μg/ml) and TCT (10 μg/ml), KLH (20 μg/ml) plus Pam-3Csk (TLR2 agonist; 500 ng/ml), or with KLH (20 μg/ml) and TCT (10 μg/ml) and Pam-3Csk (500 ng/ml). After 2 hours incubation, cells were washed and injected sub-cutaneously (s.c.) into the flank of BALB/c mice (1×10^5 cells/mouse). T cell responses were assessed 14 days later from pooled local inguinal lymph node cells stimulated with antigen ex-vivo.
Lymph node cells from each treatment group were pooled and cultured in the presence of KLH (2, 10 and 50 μg/ml) or PMA/CD3 or medium, as positive and negative controls respectively. Supernatants were collected 72 h later for cytokine analysis (IFN-γ, IL-10, IL-4 and IL-5 were evaluated by specific ELISA FIG. 12). Fresh medium was added to the wells and cells were incubated overnight. At day 4, 2 μCi of ^3H thymidine was added to each well. Plates were incubated for a further 6 hours, after which cells and ^3H incorporation was determined (FIG. 12).

[3] = test system: cultured hamster respiratory epithelia; settings: B. pertussis TCT; cited from earlier work
[4] = molecular target: T2, human NOD1 (Homo sapiens, UniProt Q9Y239); settings: cited from earlier work
T2 sequence (Q9Y239 1-953): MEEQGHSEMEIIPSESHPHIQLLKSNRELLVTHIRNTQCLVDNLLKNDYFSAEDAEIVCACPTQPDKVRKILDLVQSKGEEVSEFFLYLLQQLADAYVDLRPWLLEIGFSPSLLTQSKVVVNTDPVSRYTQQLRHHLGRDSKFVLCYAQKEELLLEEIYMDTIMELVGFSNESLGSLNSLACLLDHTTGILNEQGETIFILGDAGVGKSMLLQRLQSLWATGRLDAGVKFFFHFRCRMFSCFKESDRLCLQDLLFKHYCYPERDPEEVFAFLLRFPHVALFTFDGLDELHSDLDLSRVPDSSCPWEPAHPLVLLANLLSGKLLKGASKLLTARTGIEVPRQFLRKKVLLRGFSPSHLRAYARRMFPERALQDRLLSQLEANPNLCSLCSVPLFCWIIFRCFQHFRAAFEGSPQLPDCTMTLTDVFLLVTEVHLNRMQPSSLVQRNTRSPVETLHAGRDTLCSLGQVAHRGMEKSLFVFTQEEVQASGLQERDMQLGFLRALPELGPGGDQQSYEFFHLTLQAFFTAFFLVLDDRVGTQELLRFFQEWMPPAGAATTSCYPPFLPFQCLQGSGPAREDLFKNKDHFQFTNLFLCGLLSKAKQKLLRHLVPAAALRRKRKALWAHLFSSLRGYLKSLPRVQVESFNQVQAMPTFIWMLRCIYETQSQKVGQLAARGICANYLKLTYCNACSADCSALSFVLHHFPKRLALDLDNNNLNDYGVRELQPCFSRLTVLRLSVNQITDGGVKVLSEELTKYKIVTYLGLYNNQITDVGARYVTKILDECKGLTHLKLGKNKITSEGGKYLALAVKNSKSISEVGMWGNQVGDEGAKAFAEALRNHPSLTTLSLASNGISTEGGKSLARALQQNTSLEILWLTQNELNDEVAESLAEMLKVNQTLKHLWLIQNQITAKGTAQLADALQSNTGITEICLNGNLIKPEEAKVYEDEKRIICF

[5] = DCs treated with KLH and Pam-3Csk, also treated with TCT
[6] = KLH treated DCs also treated with TCT

## CC(=O)NC1C(OC2C3COC(O3)C(NC(C)=O)C2OC(C)C(=O)NC(C)C(=O)NC(CCC(=O)NC(CCCC(N)C(=O)NC(C)C(=O)O)C(=O)O)C(=O)O)OC(CO)C(O)C1O (centres unmarked) [TCT, N-acetylglucosaminyl-1,6-anhydro-N-acetylmuramylalanyl-γ-glutamyldiaminopimelylalanine]
[1]
  NOD1 detection of TCT: did so effectively
[2]; [5]
  antigen-specific IFN-gamma production, lymph node cells: completely abolished
  antigen-specific IL-10 production, lymph node cells: completely abolished
[2]; DCs treated with TCT and KLH
  KLH-specific IFN-gamma production, lymph node cells: No KLH-specific IFN-gamma, IL-10 and IL-4 production was detected
[2]; DCs treated with TCT and Pam-3Csk with KLH vs Pam-3Csk with KLH
  KLH-specific proliferation by lymph node cells: profound impairment
[2]; [6]
  antigen-specific IL-4 production, lymph node cells: abolished
  antigen-specific IL-10 production, lymph node cells: abolished
[2]; KLH treated DCs also treated with TCT vs KLH treated DCs alone
  proliferation by lymph node cells: almost abolished
[2]; all treatment groups
  Antigen-specific IL-5 production, LN cells: not above background concentrations
[3]
  ciliostasis and ciliated cell destruction: causes ciliostasis, ciliated cell destruction
[4]
  NOD1 detection of TCT: poorly detected
